Data taken from PMC12216609, “Inhibitors of eIF1A-ribosome interaction unveil uORF-dependent regulation of translation initiation and antitumor and antiviral effects” (The EMBO Journal, 2025).
Where “and” joins values, the source holds several entries; their conditions need not be identical. Equal entries are not always repeated.

Legend:
[1] = system: CUG/GUG vs AUG start codon luciferase reporters in HEK293T cells; assay: Near-cognate AUG starting codon fidelity reporter assay (GUG, CUG vs AUG); format: cell-based; conditions: for CUG vs AUG (%): CUG start codon reporter relative to AUG reporter (AUG = 100); for CUG vs AUG (%) / GUG vs AUG (%): compound at 20uM (summary head), single-experiment calculation; for GUG vs AUG (%): GUG start codon reporter relative to AUG reporter (AUG = 100); for average CUG and GUG / average CUG and GUG relative to DMSO / CUG Average / GUG Average: NUG experiment; for CUG Average: CUG vs AUG reporter; for GUG Average: GUG vs AUG reporter; for NUG (Final data, Fig. 1E): average CUG and GUG relative to DMSO, 20 µM overnight; for GUG vs AUG data (%) / GUG vs AUG (%) Average: compound at 20uM; for GUG vs AUG data (%): individual repeat; for GUG vs AUG (%) Average: summary average of repeats, DMSO control average […]
Procedure: We next considered the importance of eIF1A in controlling start codon fidelity in yeast and mammalian cells (Martin-Marcos et al, [2011]; Martin-Marcos et al, [2017]; Sehrawat et al, [2019]; She et al, [2023]) and tested how inhibition of eIF1A by 1Ais affects the initiation from near-cognate AUG. The effect of 1Ais was analyzed using firefly luciferase reporters bearing either AUG (control), CUG, or GUG as the exclusive translation initiation sites. Co-transfected GFP reporter served as an internal control for transfection efficiency.
For the near-cognate AUG Starting codon fidelity reporter assay, HEK293T cells were transfected with 100 ng of the previously described luciferase reporter constructs driven either by AUG, CUG, and GUG (Tang et al, [2017]) together with GFP expressing plasmid (20 ng) as normalizing control. Luciferase and GFP levels were determined as described above.
Appendix Figure S1: (A) HEK293T cells were transfected with Luciferase reporter genes with either CUG or AUG as their exclusive starting codon. 6 hours after transfection, cells were exposed to 1Ais, and the luminescence from all constructs was measured after overnight incubation. Bars represent the ratio between luminescence from the AUG starting codon and CUG after normalization with co-transfected GFP; Error bars represent SEM, * denotes p<0.05 (T-test comparing to DMSO control), n=≥4 independent biological replicates.

[2] = system: IRF7 5'UTR firefly luciferase reporter in HEK293T cells; conditions: 20 µM; for Reference vs IRF7 (Final data, Fig. 1E): 1/Result, relative to DMSO; for LONG (summary - All), normalized to DMSO: Long reporter; for LONG (summary - All), normalized to DMSO / SHORT (summary - All), normalized to DMSO: individual replicates, outliers excluded, DMSO = 1; for SHORT (summary - All), normalized to DMSO: Short reporter; for average ( long vs short ratio): summary - All;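 as to all read-outs here: luciferase signal corrected by a co-transfected GFP reporter for transfection efficiency, read after overnight compound exposure, with Long and Short reporters differing in 5'UTR length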
NSP1 = NSP1 (Severe acute respiratory syndrome coronavirus 2, UniProt P0DTD1)

Row | Compound | CUG vs AUG (%) [1] | GUG vs AUG (%) [1] | average CUG and GUG [1] | average CUG and GUG relative to DMSO [1] | CUG Average [1] | GUG Average [1] | NUG (Final data, Fig. 1E) [1] | GUG vs AUG data (%) [1] | GUG vs AUG (%) Average [1] | Reference vs IRF7 (Final data, Fig. 1E) [2] | LONG (summary - All), normalized to DMSO [2] | SHORT (summary - All), normalized to DMSO [2] | average ( long vs short ratio) [2] | GFP reporter ratio nsp1/gfp, avg (NSP1) | GFP reporter ratio nsp1/gfp, rep 1 (NSP1) | gfp signal, mean of duplicate wells (NSP1) | nsp1 signal, mean of duplicate wells (NSP1) | ratio (nsp1/gfp) (NSP1)
1 | C=CCNC(=O)CN1CCN(Cc2nc3cc(-c4ccc(Cl)cc4)sc3c(=O)[nH]2)CC1 [1Ai-1524] | 6.424% | 0.742% | 7.9532 | 1.763 | 12.0643 | 3.842 | 1.763 | 4.35% and 2.64% and 2.99% and 5.39% | 3.84% | 1.878 | 0.62 and 0.21 and 0.43 and 0.52 | 0.50 and 0.66 and 0.41 | 0.848 |  |  |  |  | 
2 | CCOC(=O)c1ccsc1NC(=O)CN1C(=O)NC(C)(c2cccc3ccccc23)C1=O (stereo not shown) [1Ai-1861] | 14.0136% | 2.535% | 6.257 | 1.387 | 9.413 | 3.101 | 1.387 | 2.64% and 2.15% and 3.17% and 4.44% | 3.10% | 1.411 | 0.0542 and 0.33 and 0.67 and 0.24 | 0.28 and 0.35 and 0.52 and 0.68 | 0.709 | 0.5997 | 0.5997 | 311 | 186.5 | 0.600
